Legend:
[1] = system: PCA-induced ejaculation in anaesthetized rats; experiment: p-chloroamphetamine (PCA)-induced ejaculation in anaesthetized rats; type: in vivo, rat; conditions: for effect on PCA-induced ejaculation: 1, 3, 10 or 30 mg/kg po, 60 min prior to PCA; for quality of erection: PCA model; for ejaculatory latency: doses above 3 mg/kg po, excipient-only about 300 s
Method: (§1) For all the sexual behavior tests, the rapid ejaculating Sprague Dawley rats, weighing 350-450 g, are used as an animal model of premature ejaculation (classified as ejaculatory latency <300 s during baseline assessment). Prior to the experiments the animals are housed in groups (2 rats per cage) under controlled 12 h light-dark cycle (lights on at 07:00), constant temperature (23±1° C.), and humidity (55±5%). The animals are given free access to standard food pellets and water.
The compounds are dosed orally by taking the tablets of Examples 1 and 2, finely crushing them and suspending the resulting powder in an aqueous vehicle for oral administration to rats by gavage. Compounds (100) and (101) are tested at 1, 3, 10 or 30 mg/kg po, 60 min prior to PCA administration. Compounds (100) and (101) each dose-dependently increases ejaculatory latency by up to 250%. As a baseline comparison, some of the rats are given a placebo formulation similar to Examples 1 and 2, but containing no prodrug.

[2] = system: rapid ejaculating Sprague Dawley rats; experiment: Copulatory behavior in rapid ejaculating conscious rats (model of premature ejaculation); type: in vivo, rat; conditions: rapidly-ejaculating conscious rats; for other effects on copulatory behavior: 10 mg/kg oral; for increase of ejaculatory latency / ejaculatory latency (time to ejaculate): 10 mg/kg, 60 min post oral dosing; for increase of ejaculatory latency: P<0.01; for ejaculatory latency (time to ejaculate): excipient-only about 140 s
Method: as §1
The rats are placed in an observation arena (50-60 cm diameter), starting 5 hours into the dark cycle and observed under red illumination. Three to four minutes after placing the male in the arena, a receptive female (ovariectomised, oestradiol benzoate/progesterone injection 48 hour before behavioral study) is introduced into the arena and the following parameters are noted: (i) ejaculatory latency (EJL; time taken from addition of receptive female into the arena to ejaculation); (ii) copulatory efficiency (CE; ejaculatory latency/the number of intromissions to ejaculation, i.e., the number of seconds between intromissions); (iii) intromission frequency (IF; the number of intromissions to ejaculation); (iv) mount frequency (MF; the number of mounts to ejaculation); (v) post ejaculatory interval (PEI; the time taken from ejaculation to the commencement of copulatory behavior).
Rodent copulatory behavior is characterized by a series of mounts, with and without vaginal insertion (50-80% of mounts result in intromission (vaginal penetration)) and ejaculation occurs after 6 to 12 intromissions. Each intromission lasts a matter of seconds—it is not possible to quantify intromission length i.e., intravaginal latency. The effect of compounds (100) and (101) is assessed on a number of copulatory parameters (see above). We are focusing on ejaculatory latency as an objective clinical outcome measure of time taken to achieve ejaculation. The study is performed in rapid ejaculating rats as a model of premature ejaculation (rats characterized by ejaculatory latency <300 s at baseline). Compound (100) and (101) increases ejaculatory latency by 58% in rapidly-ejaculating conscious rats (P<0.01), i.e., compound (100) and (101) (each to be dosed at 10 mg/kg, 60 min post oral dosing)-treated animals take about 200 s to ejaculate compared to about 140 s in excipient-only treated animals.

[3] = Tmax after oral administration of immediate release formulation; type: in vivo; conditions: human, blood, following oral administration
Source text: The compounds disclosed herein, for example, the gabapentin prodrug 1-{[(α-isobutanoyloxyethoxy)carbonyl]aminomethyl}-1-cyclohexane acetic acid, is more efficacious than the parent drug molecule (i.e., gabapentin) in treating premature ejaculation because the disclosed compounds require less time to reach a therapeutic concentration in the blood, i.e., the compounds disclosed herein have a shorter Tmax than their gabapentin or pregabalin “counterparts” when taken orally. […] This provides an advantage over the parent drugs (i.e., gabapentin and pregabalin) in that the patient need not wait as long after administering the prodrugs before a therapeutic concentration of the active parent drug in the blood is reached. Thus, the prodrugs disclosed herein allow the patient to dose shortly before sexual activity, allowing sexual activity to occur with more spontaneity, compared to dosing of either gabapentin or pregabalin.

SMILES	effect on PCA-induced ejaculation [1]	quality of erection [1]	ejaculatory latency [1]	other effects on copulatory behavior [2]	increase of ejaculatory latency [2]	ejaculatory latency (time to ejaculate) [2]	Tmax [3]
CC(C)CC(CNC(=O)OC(C)OC(=O)C(C)C)CC(=O)O (stereo not drawn) [Compound (101), 3-{[(α-Isobutanoyloxyethoxy)carbonyl]aminomethyl}-5-methyl Hexanoic Acid]	significantly delays	not influenced	about 1000 s	no other significant effects	58%	about 200 s	
NCC1(CC(=O)O)CCCCC1 [gabapentin]							2.8 to 3.3 h
CC(OC(=O)NCC1(CC(=O)O)CCCCC1)OC(=O)C(C)C (stereo not drawn) [Compound (100), 1-{[(α-Isobutanoyloxyethoxy)carbonyl]aminomethyl}-1-Cyclohexane Acetic Acid]	significantly delays	not influenced	about 1000 s	no other significant effects	58%	about 200 s	

Reference: patent US20070049626A1, “Treating premature ejaculation using gabapentin and pregabalin prodrugs” (priority 2005, published 2007)
